Assay results taken from patent US20260069584A1, “METHODS OF TREATING CHRONIC MYELOID LEUKEMIA USING THE TYROSINE KINASE INHIBITOR VODOBATINIB” (Sun Pharma Advanced Research Company Ltd., priority 2022, published 2026).
Entries after “also recorded” stand apart in the source; their conditions may differ.

What was measured:
[1] = system: cell lines expressing Ph+ wild-type and mutant forms of BCR-ABL1; test: Growth inhibition of cell lines; type: cell-based
[2] = Parts B and C pooled (n=59): safety; conditions: in vivo
Description: Fifty-five of the 59 subjects (93.2%) experienced an AE during the study, of which 62.7% of AEs (n=37) were suspected to be related to the compound of Formula I treatment. Most frequently reported AEs related to the compound of Formula I included thrombocytopenia, neutropenia, nausea, diarrhea, pruritus, fatigue and myalgia. The compound of Formula I-related AEs was generally low grade and resolved with drug hold or dose reduction. […] The AEs were distributed across all the dosing cohorts without any safety trends or association with dose(s). The DLTs (except for 1 event of fatal intracranial hemorrhage) were non-serious AEs and managed well by dose delays and/or reductions. […] A total of 5 subjects died during the study or within 30 days after the last dose of the study drug, which is not unexpected given that all patients enrolled in the study had advanced and heavily pretreated CML. The AEs related to the compound of Formula I treatment were consistent with the advanced CML population with multiple comorbidities and concomitant medications during the study.

[3] = Part B: treatment-emergent cardiovascular adverse events (CVAEs); type: in vivo, human
Description: For the purpose of the present invention, the adverse events were graded as per the National Cancer Institute's, Common Terminology Criteria for Adverse Events (NCI-CTCAE) Version 4.03 and Version 5.0 (https://evs.nci.nih.gov/ftp1/CTCAE/About.html). It is a descriptive terminology which can be utilized for Adverse Event (AE) reporting.
AEs were graded as per NCI-CTCAE Version 5.0. In the present study, along with others most common AEs for which patients were monitored were thrombocytopenia, neutropenia and anemia, any AE reported by the patient after the completion of AE collection period and considered related to the study drug was reported.
Two CVAEs considered related to the compound of Formula I: one Grade 2 hypertension and one fatal intracranial hemorrhage (ICH) with concomitant disease progression to BP CML.
Table 22 below lists the medical history of patients and CVAEs that were reported in the patient during treatment.

[4] = Prior Ponatinib (N = 22), Any grade
[5] = Prior Ponatinib (N = 22), Grade 3/4
[6] = ≤2 prior TKIs (N = 18), Any grade
[7] = ≤2 prior TKIs (N = 18), Grade 3/4
[8] = ≥3 prior TKIs (N = 35), Any grade
[9] = ≥3 prior TKIs (N = 35), Grade 3/4

Cc1ccc(C(=O)NNC(=O)c2c(C)cccc2Cl)cc1C#Cc1cnc2ccccc2c1 [compound of Formula I, N′-(2-chloro-6-methylbenzoyl)-4-methyl-3-[2-(3-quinolyl)ethynyl]-benzohydrazide]
effect on cell lines [1]: growth inhibition | AEs suspected to be related to treatment ([2]; human): 62.7% | subjects who died during the study or within 30 days after the last dose ([2]; human): 5 subjects | subjects who experienced an AE ([2]; human): 93.2% | subjects who experienced an SAE ([2]; human): 34% | subjects with grade 3 or higher-grade AEs ([2]; human): Approximately 64.4% | relatedness of cardiac AEs [2]: considered unrelated | patients with CVAEs ([3]; 1 patient, less than or equal to 2 TKIs): 5.5% | patients with CVAEs ([3]; 10 patients, prior ponatinib): 45.4% | CVAEs unrelated to the compound ([3]; 12 patients with CV history): 10 | patients with CVAEs ([3]; 13 patients, more than or equal to 3 TKIs): 37.1% | patients with CVAEs, any grade ([3]; 14 patients out of 53): 26.4% | Treatment-emergent cardiovascular AE: Adverse Events Cluster - Cardiac and vascular events (%) ([3]; Overall (N = 53), Any grade): (26.4%) | Treatment-emergent cardiovascular AE: Angina Pectoris (%) ([3]; Overall (N = 53), Any grade): (3.7%) | Treatment-emergent cardiovascular AE: Arteriosclerosis (%) ([3]; Overall (N = 53), Any grade): (1.8%) | Treatment-emergent cardiovascular AE: Cerebral haemorrhage (%) ([3]; Overall (N = 53), Any grade): (1.8%) | Treatment-emergent cardiovascular AE: Congestive heart failure (%) ([3]; Overall (N = 53), Any grade): (1.8%) | Treatment-emergent cardiovascular AE: Hot flush (%) ([3]; Overall (N = 53), Any grade): (1.8%) | Treatment-emergent cardiovascular AE: Hypertension (%) ([3]; Overall (N = 53), Any grade): (7.5%) | Treatment-emergent cardiovascular AE: Hypotension (%) ([3]; Overall (N = 53), Any grade): (1.8%) | Treatment-emergent cardiovascular AE: Intermittent claudication (%) ([3]; Overall (N = 53), Any grade): (1.8%) | Treatment-emergent cardiovascular AE: Intracranial haemorrhage (%) ([3]; Overall (N = 53), Any grade): (1.8%) | Treatment-emergent cardiovascular AE: Mouth haemorrhage (%) ([3]; Overall (N = 53), Any grade): (1.8%) | Treatment-emergent cardiovascular AE: Palpitations (%) ([3]; Overall (N = 53), Any grade): (1.8%) | Treatment-emergent cardiovascular AE: Syncope (%) ([3]; Overall (N = 53), Any grade): (1.8%) | Treatment-emergent cardiovascular AE: Transient ischaemic attack (%) ([3]; Overall (N = 53), Any grade): (1.8%) | Treatment-emergent cardiovascular AE: Troponin I increased (%) ([3]; Overall (N = 53), Any grade): (1.8%) | Treatment-emergent cardiovascular AEs: Deaths (%) ([3]; Overall (N = 53), Any grade): (1.8%) | Treatment-emergent cardiovascular AEs: Dose interruption and restart (%) ([3]; Overall (N = 53), Any grade): (3.7%) | Treatment-emergent cardiovascular AEs: Leading to drug withdrawal (%) ([3]; Overall (N = 53), Any grade): (1.8%) | Treatment-emergent cardiovascular AEs: Related to study drug (%) ([3]; Overall (N = 53), Any grade): (3.7%) | Treatment-emergent cardiovascular AEs: Serious Adverse Events (%) ([3]; Overall (N = 53), Any grade): (7.5%) | Treatment-emergent cardiovascular AE: Adverse Events Cluster - Cardiac and vascular events (%) ([3]; Overall (N = 53), Grade 3/4): (5.6%) | Treatment-emergent cardiovascular AE: Congestive heart failure (%) ([3]; Overall (N = 53), Grade 3/4): (1.8%) | Treatment-emergent cardiovascular AE: Hypertension (%) ([3]; Overall (N = 53), Grade 3/4): (1.8%) | Treatment-emergent cardiovascular AE: Syncope (%) ([3]; Overall (N = 53), Grade 3/4): (1.8%) | Treatment-emergent cardiovascular AEs: Dose interruption and restart (%) ([3]; Overall (N = 53), Grade 3/4): (1.8%) | Treatment-emergent cardiovascular AEs: Serious Adverse Events (%) ([3]; Overall (N = 53), Grade 3/4): (1.8%) | CVAEs during treatment ([3]; Patient 25000603, history: Hypertension, Myocardial ischaemia, prior TKI therapy 3, ponatinib received No): Hypertension | CVAEs during treatment ([3]; Patient 35600503, history: Intracranial hemorrhage, prior TKI therapy 3, ponatinib received No): Oral hemorrhage | CVAEs during treatment ([3]; Patient 35600706, history: Acute myocardial infarction, myocardial ischemia, prior TKI therapy 3, ponatinib received No): Hypertension | CVAEs during treatment ([3]; Patient 41000101, history: Hypertension, prior TKI therapy 3, ponatinib received No): Angina pectoris,; also recorded: Palpitations,; also recorded: Arteriosclerosis | CVAEs during treatment ([3]; Patient 84000202, history: Hypertension, prior TKI therapy 4, ponatinib received Yes): Hypertension,; also recorded: Hypotension | CVAEs during treatment ([3]; Patient 84000203, history: Hypertension, prior TKI therapy 6, ponatinib received Yes): Hot flush | CVAEs during treatment ([3]; Patient 84000206, history: Bradycardia, Hypertension, prior TKI therapy 5, ponatinib received Yes): Angina pectoris | Treatment-emergent cardiovascular AE: Adverse Events Cluster - Cardiac and vascular events (%) [3, 4]: (45.4%) | Treatment-emergent cardiovascular AE: Angina Pectoris (%) [3, 4]: (4.5%) | Treatment-emergent cardiovascular AE: Cerebral haemorrhage (%) [3, 4]: (4.5%) | Treatment-emergent cardiovascular AE: Congestive heart failure (%) [3, 4]: (4.5%) | Treatment-emergent cardiovascular AE: Hot flush (%) [3, 4]: (4.5%) | Treatment-emergent cardiovascular AE: Hypertension (%) [3, 4]: (9.1%) | Treatment-emergent cardiovascular AE: Hypotension (%) [3, 4]: (4.5%) | Treatment-emergent cardiovascular AE: Intermittent claudication (%) [3, 4]: (4.5%) | Treatment-emergent cardiovascular AE: Syncope (%) [3, 4]: (4.5%) | Treatment-emergent cardiovascular AE: Transient ischaemic attack (%) [3, 4]: (4.5%) | Treatment-emergent cardiovascular AE: Troponin I increased (%) [3, 4]: (4.5%) | Treatment-emergent cardiovascular AEs: Serious Adverse Events (%) [3, 4]: (13.6%) | Treatment-emergent cardiovascular AE: Adverse Events Cluster - Cardiac and vascular events (%) [3, 5]: (13.6%) | Treatment-emergent cardiovascular AE: Congestive heart failure (%) [3, 5]: (4.5%) | Treatment-emergent cardiovascular AE: Hypertension (%) [3, 5]: (4.5%) | Treatment-emergent cardiovascular AE: Syncope (%) [3, 5]: (4.5%) | Treatment-emergent cardiovascular AEs: Serious Adverse Events (%) [3, 5]: (4.5%) | CVAEs related to the compound ([3]; grade 2 hypertension and fatal intracranial hemorrhage): 2 | major CVAEs ([3]; highest dose of 204 mg, as long as 24 months): did not result in major CVAEs | permanent discontinuation due to CVAEs ([3]; human, in vivo): 1 | dose modifications due to CVAEs ([3]; in vivo): No dose modifications | patients reporting CVAEs on study ([3]; of thirty patients with medical history of CVAEs): 12 patients | grade 3 or 4 CVAEs ([3]; out of 53): 5.6% | withdrawal criteria based on QTcF prolongation or safety laboratory tests ([3]; patients): No subject reached the subject withdrawal criteria | Treatment-emergent cardiovascular AE: Adverse Events Cluster - Cardiac and vascular events (%) [3, 6]: (5.5%) | Treatment-emergent cardiovascular AE: Congestive heart failure (%) [3, 6]: (5.5%) | Treatment-emergent cardiovascular AE: Adverse Events Cluster - Cardiac and vascular events (%) [3, 7]: (5.5%) | Treatment-emergent cardiovascular AE: Congestive heart failure (%) [3, 7]: (5.5%) | Treatment-emergent cardiovascular AE: Adverse Events Cluster - Cardiac and vascular events (%) [3, 8]: (37.1%) | Treatment-emergent cardiovascular AE: Angina Pectoris (%) [3, 8]: (5.7%) | Treatment-emergent cardiovascular AE: Arteriosclerosis (%) [3, 8]: (2.8%) | Treatment-emergent cardiovascular AE: Cerebral haemorrhage (%) [3, 8]: (2.8%) | Treatment-emergent cardiovascular AE: Hot flush (%) [3, 8]: (2.8%) | Treatment-emergent cardiovascular AE: Hypertension (%) [3, 8]: (11.4%) | Treatment-emergent cardiovascular AE: Hypotension (%) [3, 8]: (2.8%) | Treatment-emergent cardiovascular AE: Intermittent claudication (%) [3, 8]: (2.8%) | Treatment-emergent cardiovascular AE: Intracranial haemorrhage (%) [3, 8]: (2.8%) | Treatment-emergent cardiovascular AE: Mouth haemorrhage (%) [3, 8]: (2.8%) | Treatment-emergent cardiovascular AE: Palpitations (%) [3, 8]: (2.8%) | Treatment-emergent cardiovascular AE: Syncope (%) [3, 8]: (2.8%) | Treatment-emergent cardiovascular AE: Transient ischaemic attack (%) [3, 8]: (2.8%) | Treatment-emergent cardiovascular AE: Troponin I increased (%) [3, 8]: (2.8%) | Treatment-emergent cardiovascular AE: Ventricular Extrasystoles (%) [3, 8]: (2.8%) | Treatment-emergent cardiovascular AEs: Deaths (%) [3, 8]: (2.8%) | Treatment-emergent cardiovascular AEs: Dose interruption and restart (%) [3, 8]: (5.7%) | Treatment-emergent cardiovascular AEs: Leading to drug withdrawal (%) [3, 8]: (2.8%) | Treatment-emergent cardiovascular AEs: Related to study drug (%) [3, 8]: (5.7%) | Treatment-emergent cardiovascular AEs: Serious Adverse Events (%) [3, 8]: (11.4%) | Treatment-emergent cardiovascular AE: Adverse Events Cluster - Cardiac and vascular events (%) [3, 9]: (5.7%) | Treatment-emergent cardiovascular AE: Hypertension (%) [3, 9]: (2.8%) | Treatment-emergent cardiovascular AE: Syncope (%) [3, 9]: (2.8%) | Treatment-emergent cardiovascular AEs: Dose interruption and restart (%) [3, 9]: (2.8%) | Treatment-emergent cardiovascular AEs: Serious Adverse Events (%) [3, 9]: (2.8%)
